Among the data in the kinase profiling compilation of Christmann-Franck et al. (2016) are IC50, kinase still bound, per cent of control and Kd values, retold here.

For assay [1], the target named is TTK (human) (UniProt P33981). Briefly: SelectScreen, TR FRET.
The target of a further assay is PRKD1 (human) (UniProt Q15139). Description: KINOMEscan competition binding. The note with it: compound 10.0 µM.
Another assay concerns the target PTK2 (human) (UniProt Q05397). Briefly: KINOMEscan competition binding. The note with it: compound 10.0 µM.
The target of another assay is RPS6KA6 KD2 (human) (UniProt Q9UK32). Briefly: KINOMEscan competition binding. The note with it: compound 10.0 µM.
Sequence of RPS6KA6 KD2 (human) (Q9UK32 whole entry, looked up): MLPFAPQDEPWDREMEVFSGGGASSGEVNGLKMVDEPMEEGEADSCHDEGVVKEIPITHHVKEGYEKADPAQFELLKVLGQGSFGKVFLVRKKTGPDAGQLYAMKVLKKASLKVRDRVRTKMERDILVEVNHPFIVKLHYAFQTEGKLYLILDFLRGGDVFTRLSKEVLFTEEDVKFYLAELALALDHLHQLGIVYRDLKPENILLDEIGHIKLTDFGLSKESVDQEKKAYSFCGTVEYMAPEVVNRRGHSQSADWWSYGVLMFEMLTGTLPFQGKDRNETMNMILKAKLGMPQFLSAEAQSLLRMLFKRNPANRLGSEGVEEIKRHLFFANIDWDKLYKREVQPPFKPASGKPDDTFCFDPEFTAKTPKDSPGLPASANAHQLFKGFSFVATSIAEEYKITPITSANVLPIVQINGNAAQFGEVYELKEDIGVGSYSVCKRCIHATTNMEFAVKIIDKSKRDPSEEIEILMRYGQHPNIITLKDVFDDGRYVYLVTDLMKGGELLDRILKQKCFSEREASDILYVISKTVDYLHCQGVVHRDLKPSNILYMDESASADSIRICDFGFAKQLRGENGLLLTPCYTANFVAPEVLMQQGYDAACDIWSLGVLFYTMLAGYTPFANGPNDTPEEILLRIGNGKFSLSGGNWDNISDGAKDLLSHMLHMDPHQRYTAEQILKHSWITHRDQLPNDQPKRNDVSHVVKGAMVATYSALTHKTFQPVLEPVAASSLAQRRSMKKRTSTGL
The next assay has as its target PLK1 (human) (UniProt P53350). Briefly: KINOMEscan competition binding. The note with it: compound 10.0 µM.
A further assay concerns the target MET (human) (UniProt P08581). Briefly: KINOMEscan competition binding. Particulars: compound 10.0 µM.
Another assay deals with RPS6KA2 KD2 (human) (UniProt Q15349). Description: KINOMEscan competition binding. The note with it: compound 10.0 µM.
The next assay concerns the target DAPK2 (human) (UniProt Q9UIK4). Description: KINOMEscan competition binding. The note with it: compound 10.0 µM.
The target of the next assay is MAPK7 (human) (UniProt Q13164). Description: KINOMEscan competition binding. Particulars: compound 10.0 µM.
In a further assay the target is PLK4 (human) (UniProt O00444). Description: KINOMEscan competition binding. Particulars: compound 10.0 µM.
For the next assay, the target named is CAMKK1 (human) (UniProt Q8N5S9). Briefly: KINOMEscan competition binding. The note with it: compound 10.0 µM.
Another assay addresses STK33 (human) (UniProt Q9BYT3). Description: KINOMEscan competition binding. The note with it: compound 10.0 µM.
Another assay concerns the target DCLK2 (human) (UniProt Q8N568). Description: KINOMEscan competition binding. The note with it: compound 10.0 µM.
A further assay concerns the target DAPK1 (human) (UniProt P53355). Briefly: KINOMEscan competition binding. Particulars: compound 10.0 µM.
A further assay concerns the target CAMK2A (human) (UniProt Q9UQM7). Description: KINOMEscan competition binding. The note with it: compound 10.0 µM.
The target in another assay is DCLK1 (human) (UniProt O15075). Briefly: KINOMEscan competition binding. The note with it: compound 10.0 µM.
In another assay the target is MYLK (human) (UniProt Q15746). Briefly: KINOMEscan competition binding. The note with it: compound 10.0 µM.
The target of the next assay is MINK1 (human) (UniProt Q8N4C8). Description: KINOMEscan competition binding. The note with it: compound 10.0 µM.
The target in a further assay is CLK2 (human) (UniProt P49760). Description: KINOMEscan competition binding. Particulars: compound 10.0 µM.
A further assay has as its target PLK3 (human) (UniProt Q9H4B4). Briefly: KINOMEscan competition binding. The note with it: compound 10.0 µM.
The target in assay [2] is TTK (human) (UniProt P33981). Briefly: KINOMEscan competition binding.
A further assay deals with TNK1 (human) (UniProt Q13470). Description: KINOMEscan competition binding. The note with it: compound 10.0 µM.
In a further assay the target is CAMKK2 (human) (UniProt Q96RR4). Description: KINOMEscan competition binding. The note with it: compound 10.0 µM.
The next assay has as its target SLK (human) (UniProt Q9H2G2). Description: KINOMEscan competition binding. Particulars: compound 10.0 µM.
A further assay deals with DAPK3 (human) (UniProt O43293). Description: KINOMEscan competition binding. The note with it: compound 10.0 µM.
The target in a further assay is ALK (human) (UniProt Q9UM73). Description: KINOMEscan competition binding. The note with it: compound 10.0 µM.
For a further assay, the target named is GAK (human) (UniProt O14976). Briefly: KINOMEscan competition binding. The note with it: compound 10.0 µM.
Assay [3] deals with PIM2 (human) (UniProt Q9P1W9). Briefly: KINOMEscan competition binding. Particulars: compound 10.0 µM.
Sequence of PIM2 (human) (Q9P1W9 whole entry, looked up): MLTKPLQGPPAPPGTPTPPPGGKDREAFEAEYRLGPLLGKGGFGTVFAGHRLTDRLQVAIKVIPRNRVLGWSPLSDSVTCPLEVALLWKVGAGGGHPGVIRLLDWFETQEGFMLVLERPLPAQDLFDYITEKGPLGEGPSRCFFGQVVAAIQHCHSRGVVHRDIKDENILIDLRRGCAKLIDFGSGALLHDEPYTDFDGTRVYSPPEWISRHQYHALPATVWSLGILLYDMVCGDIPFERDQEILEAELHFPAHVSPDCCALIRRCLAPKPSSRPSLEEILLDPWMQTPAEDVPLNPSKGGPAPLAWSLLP
A further assay deals with MYO3B (human) (UniProt Q8WXR4). Description: KINOMEscan competition binding. The note with it: compound 10.0 µM.
Another assay concerns the target MAP2K3 (human) (UniProt P46734). Briefly: KINOMEscan competition binding. The note with it: compound 10.0 µM.
For another assay, the target named is HIPK1 (human) (UniProt Q86Z02). Briefly: KINOMEscan competition binding. Particulars: compound 10.0 µM.
Sequence of HIPK1 (human) (Q86Z02 whole entry, looked up): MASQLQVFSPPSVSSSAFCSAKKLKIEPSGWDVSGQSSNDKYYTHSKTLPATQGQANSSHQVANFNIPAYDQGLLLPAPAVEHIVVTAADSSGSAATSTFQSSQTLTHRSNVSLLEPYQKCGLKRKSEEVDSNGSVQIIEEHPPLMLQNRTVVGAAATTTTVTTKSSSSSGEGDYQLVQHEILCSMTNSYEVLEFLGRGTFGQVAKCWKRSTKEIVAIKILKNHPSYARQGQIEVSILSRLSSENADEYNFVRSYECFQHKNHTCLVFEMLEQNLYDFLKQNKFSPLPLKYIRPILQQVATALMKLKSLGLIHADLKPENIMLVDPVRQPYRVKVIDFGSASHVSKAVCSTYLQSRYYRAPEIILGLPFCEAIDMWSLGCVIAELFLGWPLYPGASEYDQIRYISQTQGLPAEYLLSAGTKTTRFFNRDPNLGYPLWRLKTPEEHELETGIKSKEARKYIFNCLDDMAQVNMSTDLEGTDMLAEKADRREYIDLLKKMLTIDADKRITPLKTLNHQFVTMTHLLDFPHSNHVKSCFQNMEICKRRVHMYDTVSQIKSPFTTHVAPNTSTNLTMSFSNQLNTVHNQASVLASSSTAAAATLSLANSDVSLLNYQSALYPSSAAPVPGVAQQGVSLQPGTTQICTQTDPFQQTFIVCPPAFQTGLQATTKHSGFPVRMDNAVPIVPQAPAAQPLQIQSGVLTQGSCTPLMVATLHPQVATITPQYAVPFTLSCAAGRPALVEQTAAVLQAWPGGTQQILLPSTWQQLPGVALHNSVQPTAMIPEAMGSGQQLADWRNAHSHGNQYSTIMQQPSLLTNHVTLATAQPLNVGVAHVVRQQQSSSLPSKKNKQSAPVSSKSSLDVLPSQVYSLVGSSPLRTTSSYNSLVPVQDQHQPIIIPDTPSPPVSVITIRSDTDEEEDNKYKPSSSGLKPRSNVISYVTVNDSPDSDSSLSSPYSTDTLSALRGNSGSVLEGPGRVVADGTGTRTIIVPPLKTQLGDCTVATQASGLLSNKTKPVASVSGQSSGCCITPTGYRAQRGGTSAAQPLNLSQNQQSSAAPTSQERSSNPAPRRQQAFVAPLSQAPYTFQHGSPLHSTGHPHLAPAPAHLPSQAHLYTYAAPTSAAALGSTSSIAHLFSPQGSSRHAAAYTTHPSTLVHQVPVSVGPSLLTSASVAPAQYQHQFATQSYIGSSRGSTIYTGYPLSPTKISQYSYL
For a further assay, the target named is PIM3 (human) (UniProt Q86V86). Description: KINOMEscan competition binding. The note with it: compound 10.0 µM.
For assay [4], the target named is PIM1 (human) (UniProt P11309). Briefly: KINOMEscan competition binding. Particulars: compound 10.0 µM.
Sequence of PIM1 (human) (P11309 whole entry, looked up): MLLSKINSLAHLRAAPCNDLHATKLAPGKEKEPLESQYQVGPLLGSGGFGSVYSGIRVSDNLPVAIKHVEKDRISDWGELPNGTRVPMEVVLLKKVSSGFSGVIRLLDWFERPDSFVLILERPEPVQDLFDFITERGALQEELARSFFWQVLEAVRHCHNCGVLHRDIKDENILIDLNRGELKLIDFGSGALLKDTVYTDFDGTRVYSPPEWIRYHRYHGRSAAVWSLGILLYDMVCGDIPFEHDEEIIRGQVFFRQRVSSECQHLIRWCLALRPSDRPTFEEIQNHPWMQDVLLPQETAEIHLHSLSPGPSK
The next assay addresses CDK16 (human) (UniProt Q00536). Description: KINOMEscan competition binding. Particulars: compound 10.0 µM.
The target in assay [5] is PIM2 (human) (UniProt Q9P1W9). Briefly: SelectScreen, TR FRET. (In TR-FRET formats the signal depends on donor and acceptor labels being close together.)
Assay [6] addresses PIM1 (human) (UniProt P11309). Description: SelectScreen, TR FRET.
The target of another assay is CSNK2A2 (human) (UniProt P19784). Briefly: KINOMEscan competition binding. Particulars: compound 10.0 µM.
The target of a further assay is RPS6KA1 KD2 (human) (UniProt Q15418). Description: KINOMEscan competition binding. The note with it: compound 10.0 µM.
For a further assay, the target named is STK24 (human) (UniProt Q9Y6E0). Briefly: KINOMEscan competition binding. Particulars: compound 10.0 µM.
For another assay, the target named is MAP4K2 (human) (UniProt Q12851). Briefly: KINOMEscan competition binding. Particulars: compound 10.0 µM.
For assay [7], the target named is TYK2 JH2 pseudokinase (human) (UniProt P29597). Briefly: KINOMEscan competition binding. Particulars: compound 10.0 µM.
The next assay deals with GSK3A (human) (UniProt P49840). Description: KINOMEscan competition binding. The note with it: compound 10.0 µM.
The target in the next assay is ACVR2B (human) (UniProt Q13705). Description: KINOMEscan competition binding. The note with it: compound 10.0 µM.
The target of a further assay is MAP3K7 (human) (UniProt O43318). Briefly: KINOMEscan competition binding. Particulars: compound 10.0 µM.
Another assay addresses MAPKAPK5 (human) (UniProt Q8IW41). Briefly: KINOMEscan competition binding. Particulars: compound 10.0 µM.
The target in a further assay is GSK3B (human) (UniProt P49841). Description: KINOMEscan competition binding. The note with it: compound 10.0 µM.
For a further assay, the target named is STK17B (human) (UniProt O94768). Briefly: KINOMEscan competition binding. The note with it: compound 10.0 µM.
Another assay addresses TGFBR2 (human) (UniProt P37173). Briefly: KINOMEscan competition binding. Particulars: compound 10.0 µM.
The target in the next assay is ANKK1 (human) (UniProt Q8NFD2). Briefly: KINOMEscan competition binding. The note with it: compound 10.0 µM.
In assay [8] the target is JAK1 JH2 pseudokinase (human) (UniProt P23458). Briefly: KINOMEscan competition binding. The note with it: compound 10.0 µM.
The target in a further assay is STK17A (human) (UniProt Q9UEE5). Briefly: KINOMEscan competition binding. Particulars: compound 10.0 µM.
The next assay has as its target TLK1 (human) (UniProt Q9UKI8). Briefly: KINOMEscan competition binding. The note with it: compound 10.0 µM.
In the next assay the target is CSNK1E (human) (UniProt P49674). Description: KINOMEscan competition binding. The note with it: compound 10.0 µM.
For another assay, the target named is DYRK1B (human) (UniProt Q9Y463). Briefly: KINOMEscan competition binding. The note with it: compound 10.0 µM.
For the next assay, the target named is RIPK4 (human) (UniProt P57078). Briefly: KINOMEscan competition binding. Particulars: compound 10.0 µM.

Some results are limits rather than exact numbers.

Sequence of TTK (human) (P33981 whole entry, looked up): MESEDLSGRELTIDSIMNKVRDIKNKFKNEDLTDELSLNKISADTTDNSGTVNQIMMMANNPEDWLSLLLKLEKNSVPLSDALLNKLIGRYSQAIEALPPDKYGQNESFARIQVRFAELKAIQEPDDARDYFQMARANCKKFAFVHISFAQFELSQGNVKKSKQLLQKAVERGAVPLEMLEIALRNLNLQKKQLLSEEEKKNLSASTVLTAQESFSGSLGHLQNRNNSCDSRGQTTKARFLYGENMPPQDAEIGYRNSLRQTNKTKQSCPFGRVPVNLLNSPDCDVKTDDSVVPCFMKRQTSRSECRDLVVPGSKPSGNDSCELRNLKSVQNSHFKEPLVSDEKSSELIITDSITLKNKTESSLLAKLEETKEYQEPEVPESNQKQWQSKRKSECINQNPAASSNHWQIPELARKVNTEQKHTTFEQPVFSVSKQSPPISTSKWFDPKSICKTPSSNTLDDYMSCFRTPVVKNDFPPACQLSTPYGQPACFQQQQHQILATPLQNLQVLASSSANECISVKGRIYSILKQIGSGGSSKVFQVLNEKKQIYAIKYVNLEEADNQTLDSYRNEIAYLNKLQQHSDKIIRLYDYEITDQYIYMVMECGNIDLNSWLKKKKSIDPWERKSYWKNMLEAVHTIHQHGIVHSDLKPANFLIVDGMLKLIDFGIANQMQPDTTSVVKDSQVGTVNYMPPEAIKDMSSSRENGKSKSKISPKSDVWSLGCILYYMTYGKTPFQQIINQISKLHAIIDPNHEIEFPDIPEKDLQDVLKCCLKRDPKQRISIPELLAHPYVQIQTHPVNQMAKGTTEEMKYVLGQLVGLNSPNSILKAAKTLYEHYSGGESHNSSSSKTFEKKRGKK
Sequence of DAPK2 (human) (Q9UIK4 whole entry, looked up): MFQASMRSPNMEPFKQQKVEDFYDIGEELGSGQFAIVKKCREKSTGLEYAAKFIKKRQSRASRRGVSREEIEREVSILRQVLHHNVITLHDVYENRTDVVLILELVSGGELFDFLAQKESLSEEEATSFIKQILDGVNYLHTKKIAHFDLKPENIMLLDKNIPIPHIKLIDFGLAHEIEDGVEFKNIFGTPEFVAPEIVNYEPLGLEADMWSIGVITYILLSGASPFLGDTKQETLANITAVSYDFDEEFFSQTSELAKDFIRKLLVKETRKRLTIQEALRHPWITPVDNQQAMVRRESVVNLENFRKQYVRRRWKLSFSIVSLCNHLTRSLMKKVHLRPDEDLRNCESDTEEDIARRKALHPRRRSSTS
Sequence of CDK16 (human) (Q00536 whole entry, looked up): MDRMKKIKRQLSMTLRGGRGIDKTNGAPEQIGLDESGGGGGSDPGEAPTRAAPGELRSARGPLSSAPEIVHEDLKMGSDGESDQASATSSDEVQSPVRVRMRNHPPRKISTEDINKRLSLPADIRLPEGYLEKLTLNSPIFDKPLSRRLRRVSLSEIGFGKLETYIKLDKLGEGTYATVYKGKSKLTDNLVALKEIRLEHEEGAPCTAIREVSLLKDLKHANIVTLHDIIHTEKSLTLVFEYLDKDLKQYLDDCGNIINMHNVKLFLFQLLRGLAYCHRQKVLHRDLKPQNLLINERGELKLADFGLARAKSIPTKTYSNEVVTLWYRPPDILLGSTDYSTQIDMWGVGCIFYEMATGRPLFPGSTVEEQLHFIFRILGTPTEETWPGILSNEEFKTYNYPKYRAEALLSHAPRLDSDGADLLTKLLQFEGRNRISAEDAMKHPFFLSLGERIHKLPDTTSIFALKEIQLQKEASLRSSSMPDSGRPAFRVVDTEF
Sequence of MAP2K3 (human) (P46734 whole entry, looked up): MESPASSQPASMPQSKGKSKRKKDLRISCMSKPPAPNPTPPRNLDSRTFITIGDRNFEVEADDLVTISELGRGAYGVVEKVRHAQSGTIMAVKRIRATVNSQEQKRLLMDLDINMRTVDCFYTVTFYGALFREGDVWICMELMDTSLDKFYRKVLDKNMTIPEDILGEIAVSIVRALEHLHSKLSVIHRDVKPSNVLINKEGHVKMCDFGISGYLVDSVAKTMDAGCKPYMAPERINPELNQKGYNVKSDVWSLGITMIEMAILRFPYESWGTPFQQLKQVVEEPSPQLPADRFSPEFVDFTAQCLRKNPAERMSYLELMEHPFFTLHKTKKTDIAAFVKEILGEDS

The compound `COc1cc(C(=O)NC2CCN(C)CC2)ccc1Nc1ncc2c(n1)N(C1CCCC1)CC(C)C(=O)N2C` (configuration not stated) gave an IC50 at TTK (human) [1] greater than 10000 nM. Further, the kinase still bound, per cent of control at PRKD1 (human) turned out to be 34%; on PTK2 (human) it was 17%; on RPS6KA6 KD2 (human), 32%; at PLK1 (human) it was 22%; at MET (human), 20%; on RPS6KA2 KD2 (human) it was 34%. Besides, the kinase still bound, per cent of control at DAPK2 (human) worked out at 21%; on MAPK7 (human), 9.6%; at PLK4 (human) it was 16%; at CAMKK1 (human) it was 33%; on STK33 (human), 7%; at DCLK2 (human), 1.8%. The kinase still bound, per cent of control amounted to 7.2% on DAPK1 (human); 20% on CAMK2A (human); 3.4% at DCLK1 (human); 0.45% on MYLK (human); 33% at MINK1 (human); 15% at CLK2 (human). In addition, the kinase still bound, per cent of control on PLK3 (human) worked out at 2.8%; at TTK (human) [2] (compound 10.0 µM), 9.4%; on TNK1 (human), 24%; on CAMKK2 (human) it was 7.6%; at SLK (human), 2%; on DAPK3 (human) it was 8.2%. The kinase still bound, per cent of control was 20% at ALK (human) and 3.2% at GAK (human). Moreover, the Kd at TTK (human) [2] came out at 3920 nM.

Regarding `N=C1NC(=O)/C(=C/c2cccc(-c3ccc(S(N)(=O)=O)cc3)c2)S1`, the kinase still bound, per cent of control on PIM2 (human) [3] is 6.2%; at MYO3B (human), 2.9%; at MAP2K3 (human) it was 24%; at HIPK1 (human), 25%; on PIM3 (human), 13%; at PIM1 (human) [4] it was 16%. The same compound displayed a kinase still bound, per cent of control at CDK16 (human) of 32%.

As for `N=C1NC(=O)/C(=C/c2ccc(-c3ccc4c(C(=O)Nc5ccc(N6CCNCC6)cc5)cccc4c3)o2)S1`, the values for the IC50 against PIM2 (human) [5] and on PIM1 (human) [6] were 115 nM and 131 nM, respectively. Also, the kinase still bound, per cent of control at CSNK2A2 (human) was determined as 33%; at RPS6KA1 KD2 (human), 17%; on STK24 (human), 23%; on RPS6KA6 KD2 (human) it was 22%; on MAP4K2 (human), 26%; in assay [7], 8.8%. The kinase still bound, per cent of control is 18% at GSK3A (human); 26% at RPS6KA2 KD2 (human); 33% on ACVR2B (human); 2.6% at MAP3K7 (human); 0.65% at PIM2 (human) [3]; 24% on DAPK2 (human). In addition, the kinase still bound, per cent of control on MAPKAPK5 (human) was found to be 12%; at GSK3B (human), 34%; on PLK4 (human) it was 3.8%; at STK17B (human), 0.4%; on TGFBR2 (human), 5.7%; on ANKK1 (human), 25%. Further, the kinase still bound, per cent of control at MAP2K3 (human) is 4.6%; on DAPK1 (human) it was 12%; at HIPK1 (human), 0.25%; in assay [8], 32%; at PIM3 (human) it was 8.2%; on STK17A (human), 0.1%. The kinase still bound, per cent of control at PIM1 (human) [4] is 6.4%; on TLK1 (human), 12%; at CSNK1E (human), 15%; at CDK16 (human), 24%; at DYRK1B (human), 10%; on RIPK4 (human), 1.3%.

One may read the IC50 as the concentration at which inhibition is half-maximal. Read a low IC50 as inhibition by little substance. The term Kd denotes a measure of binding affinity in units of concentration.
